From patent US8076286B2, “Antimicrobial peptides and use thereof” (priority 2006, dated 2011)
Ends that are not written are not given here.

Assays:
Erythrocytes = assay: Hemolysis assay; assay type: cell-based; settings: % of Triton X-100 induced hemolysis; 1 h at 37° C.; peptides 3-60 μM, concentration for table not stated
Description: EDTA-blood was centrifuged at 800 g for 10 min, whereafter plasma and buffy coat were removed. The erythrocytes were washed three times and resuspended in 5% PBS, pH 7.4. The cells were then incubated with end-over-end rotation for 1 h at 37° C. in the presence of peptides (3-60 μM). 2% Triton X-100 (Sigma-Aldrich) served as positive control. The samples were then centrifuged at 800 g for 10 min. The absorbance of hemoglobin release was measured at λ 540 nm and is in the plot expressed as % of TritonX-100 induced hemolysis (FIG. 2).

E.coli ATCC 25922 = assay: Radial diffusion assay (RDA), E. coli; assay type: cell-based, Escherichia coli; settings: zone of bacterial clearance in RDA; unit mm only in FIG. 1 legend, not in Table 2A
Description: (§1) Escherichia coli ATCC25922, Pseudomonas aeruginosa ATCC27853, Staphylococcus aureus ATCC29213, Bacillus subtilis ATCC6633 bacterial isolates, and the fungal isolate Candida albicans ATCC90028, were obtained from the Department of Bacteriology, Lund University Hospital.
(§2) Radial diffusion assays (RDA) were performed essentially as described earlier (Lehrer, R. I., Rosenman, M., Harwig, S. S., Jackson, R. & Eisenhauer, P. (1991) Ultrasensitive assays for endogenous antimicrobial polypeptides, J Immunol Methods. 137, 167-73.).
(§3) Briefly, bacteria (E. coli, P. aeruginosa, S. aureus, B. subtilis) or fungi (C. albicans) were grown to mid-logarithmic phase in 10 ml of full-strength (3% w/v) trypticase soy broth (TSB) (Becton-Dickinson, Cockeysville, Md.). The microorganisms were washed once with 10 mM Tris, pH 7.4. 4×10^6 bacterial cfu or 1×10^5 fungal cfu was added to 5 ml of the underlay agarose gel, consisting of 0.03% (w/v) TSB, 1% (w/v) low-electroendoosmosistype (Low-EEO) agarose (Sigma, St Louise Mo.) and a final concentration of 0.02% (v/v) Tween 20 (Sigma). The underlay was poured into a Ø85 mm petri dish. After agarose solidified, 4 mm-diameter wells were punched and 6 μl of test sample was added to each well. Plates were incubated at 37° C. for 3 hours to allow diffusion of the peptides. […]

S.aureus ATCC 29213 = assay: Radial diffusion assay (RDA), S. aureus; assay type: cell-based, Staphylococcus aureus; settings: zone of bacterial clearance in RDA; unit mm only in FIG. 1 legend, not in Table 2A
Description: as §1, §2, §3

[1] = Liposome leakage assay (carboxyfluorescein), PC liposomes; assay type: biochemical; settings: dioleoylphosphatidylcholine 60 mol %/cholesterol 40 mol % liposomes, scale 100% = Triton X100 release, unit not in table; for CF leakage PC + NaCl: 10 mM Tris pH 7.4, with 150 mM NaCl; for CF leakage PC − NaCl: 10 mM Tris pH 7.4, without NaCl
Description: (§4) Dry lipid films were prepared by dissolving either dioleoylphosphatidylcholine (Avanti Polar Lipids, Alabaster, Ala.) (60 mol %) and cholesterol (Sigma, St Louis, Mo.) (40 mol %), or dioleoylphosphatidylcholine (30 mol %), dioleoylphosphatidic acid (Avanti Polar Lipids, Alabaster, Ala.) (30 mol %) and cholesterol (40 mol %) in chloroform, and then removing the solvent by evaporation under vacuum overnight. Subsequently, buffer solution containing 10 mM Tris, pH 7.4, either with or without additional 150 mM NaCl, was added together with 0.1 M carboxyfluorescein (CF) (Sigma, St Louis, Mo.). After hydration, the lipid mixture was subjected to eight freeze-thaw cycles consisting of freezing in liquid nitrogen and heating to 60° C. Unilamellar liposomes with a diameter of about 130 nm (as found with cryo-TEM; results not shown) were generated by multiple extrusions through polycarbonate filters (pore size 100 nm) mounted in a LipoFast miniextruder (Avestin, Ottawa, Canada). Untrapped carboxyfluorescein was then removed by filtration through two subsequent Sephadex G-50 columns with the relevant Tris buffer as eluent. Both extrusion and filtration was performed at 22° C. In the liposome leakage assay, the well known self-quenching of CF was used. Thus, at 100 mM CF is self-quenched, and the recorded fluorescence intensity from liposomes with entrapped CF is low. […] The CF release was determined by monitoring the emitted fluorescence at 520 nm from a liposome dispersion, ([…] in 10 mM Tris pH 7.4). An absolute leakage scale is obtained by disrupting the liposomes at the end of the experiment through addition of 0.8 mM Triton X100 (Sigma, St Louis, Mo.), thereby causing 100% release and dequenching of CF. A SPEX-fluorolog 1650 0.22-m double spectrometer (SPEX Industries, Edison, N.J.) was used for the liposome leakage assay (see Table 3, FIG. 3).

[2] = Liposome leakage assay (carboxyfluorescein), PA liposomes; assay type: biochemical; settings: dioleoylphosphatidylcholine 30/dioleoylphosphatidic acid 30/cholesterol 40 mol % liposomes, unit not in table; for CF leakage PA + NaCl: 10 mM Tris pH 7.4, with 150 mM NaCl; for CF leakage PA − NaCl: 10 mM Tris pH 7.4, without NaCl
Description: as §4

[3] = CD-spectroscopy, helical content; assay type: physicochemical; settings: 10 mM Tris, pH 7.4, 37° C., peptide 10 μM; for Helical content, PA: PA liposome dispersion; for Helical content, PA / Helical content, PC: lipid 100 μM; for Helical content, PC: PC liposome dispersion; for Helical content, Buffer: buffer only
Description: The CD spectra of the peptides in solution were measured on a Jasco J-810 Spectropolarimeter (Jasco, U.K.). The measurements were performed at 37° C. in a 10 mm quartz cuvet under stirring and the peptide concentration was 10 μM. The effect of on peptide secondary structure of liposomes at a lipid concentration of 100 μM was monitored in the range 200-250 nm. The only peptide conformations observed under the conditions investigated were α-helix and random coil. The fraction of the peptide in α-helical conformation, Xα, is calculated from Xα=(A−Ac)/(Aα−Ac) (1)
where A is the recorded CD signal at 225 nm, and Aα and Ac are the CD signal at 225 nm for a reference peptide in 100% α-helix and 100% random coil conformation, respectively. 100% α-helix and 100% random coil references were obtained from 0.133 mM (monomer concentration) poly-L-lysine in 0.1 M NaOH and 0.1 M HCl, respectively. To account for the instrumental differences between measurements the background value (detected at 250 nm, where no peptide signal is present) was subtracted. Signals from the bulk solution were also corrected for (see Table 4).

[4] = Antimicrobial activity stated in text, microorganism not specified; assay type: cell-based; settings: statement in words, no organism or method given

Compound	Erythrocytes Hemolysis (%) Mean (Erythrocytes) [%]	Bacteria E.coli ATCC 25922 Mean (E.coli ATCC 25922) [mm]	Bacteria S.aureus ATCC 29213 Mean (S.aureus ATCC 29213) [mm]	CF leakage PC + NaCl [1] [%]	CF leakage PC − NaCl [1] [%]	CF leakage PA + NaCl [2] [%]	CF leakage PA − NaCl [2] [%]	Helical content, PA [3] [%]	Helical content, PC [3] [%]	Helical content, Buffer [3] [%]	antimicrobial effect [4]
CC[C@H](C)[C@H](NC(=O)[C@H](CCCCN)NC(=O)[C@H](CCC(=O)O)NC(=O)[C@H](CCCCN)NC(=O)[C@H](CO)NC(=O)[C@H](CCCCN)NC(=O)[C@H](CCCNC(=N)N)NC(=O)[C@H](Cc1ccccc1)NC(=O)[C@H](Cc1ccccc1)NC(=O)[C@H](CC(=O)O)NC(=O)CNC(=O)[C@H](CC(C)C)NC(=O)[C@@H](N)CC(C)C)C(=O)NCC(=O)N[C@@H](CCCCN)C(=O)N[C@@H](CCC(=O)O)C(=O)N[C@@H](Cc1ccccc1)C(=O)N[C@@H](CCCCN)C(=O)N[C@@H](CCCNC(=N)N)C(=O)N[C@H](C(=O)N[C@H](C(=O)N[C@@H](CCC(N)=O)C(=O)N[C@@H](CCCNC(=N)N)C(=O)N[C@H](C(=O)N[C@@H](CCCCN)C(=O)N[C@@H](CC(=O)O)C(=O)N[C@@H](Cc1ccccc1)C(=O)N[C@@H](CC(C)C)C(=O)N[C@@H](CCCNC(=N)N)C(=O)N[C@@H](CC(N)=O)C(=O)N[C@@H](CC(C)C)C(=O)N[C@H](C(=O)N1CCC[C@H]1C(=O)N[C@@H](CCCNC(=N)N)C(=O)N[C@H](C(=O)N[C@@H](CCC(=O)O)C(=O)N[C@@H](CO)C(=O)O)[C@@H](C)O)C(C)C)[C@@H](C)CC)C(C)C)[C@@H](C)CC [LL-37]	16.43										
CC(C)C[C@H](NC(=O)[C@H](Cc1c[nH]c2ccccc12)NC(=O)[C@H](CCCCN)NC(=O)[C@H](CCCCN)NC(=O)[C@H](CC(C)C)NC(=O)[C@H](CCCNC(=N)N)NC(=O)[C@H](Cc1ccccc1)NC(=O)[C@@H](N)CC(C)C)C(=O)N[C@@H](CCC(N)=O)C(=O)N[C@@H](CCCCN)C(=O)N[C@H](C(=O)N[C@H](C(=O)N[C@@H](CCCCN)C(=O)N[C@@H](CCC(N)=O)C(=O)N[C@@H](Cc1ccccc1)C(=O)NCC(=O)N[C@@H](CCC(=O)O)C(=O)O)[C@@H](C)O)C(C)C [SEQ ID NO:34, LFRIKKWLQKVTKQFGE]		6.65	4.75								
CQKRYRGHKITHKMIC (listed as Homo sapiens) [CQK16, FA11_HUMAN aa 545-560]				14 ± 4	64 ± 3	15 ± 2	18 ± 5	8 ± 2	10 ± 2	10 ± 2	
GKYGIYTKVSRYVNWIKEKTKLT (listed as Homo sapiens) [GKY23, FA9_HUMAN aa 439-461]				19 ± 1	86 ± 7	30 ± 5	86 ± 4	29 ± 2	21 ± 2	7 ± 2	
LFRLKKWIRKVTRLFG [SEQ ID NO:9, LFRLKKWIRKVTRLFG]		11.03	8.59								displayed antimicrobial activity
NWRENLDRDIALMKLKKP (listed as Homo sapiens) [NVR18]				0 ± 1	4 ± 1	0 ± 1	2 ± 1				
SEKTLRKWLKMFKKRQLELY (listed as Homo sapiens) [SEK20]				17 ± 5	98 ± 2	16 ± 1	64 ± 2	38 ± 4	34 ± 4	14 ± 2	
